Measurements published in US12503451B2, “2-arylthiazole derivative or salt thereof, preparation method therefor, and pharmaceutical composition comprising same” (HEXAPHARMATEC CO., LTD., priority 2020, dated 2025).

Key:
[1] = system: dimethylnitrosamine (DMN)-induced liver injury male SD rats; assay: Liver function-improving activities by oral administration in the liver injury model (1); assay type: in vivo, rat; conditions: 25 mg/kg oral once a day with DMN
Experimental: The compounds according to the present invention were orally administered to dimethylnitrosamine (DMN)-induced liver injury male SD rats for 3 weeks, so as to evaluate liver function-improving activities. Specifically, 7-week-old male SD rats (Orient Bio, Korea) were accommodated to the laboratory environment at room temperature for 7 days. General symptoms were observed and then only healthy animals were used for the experiment. […] DMN was dissolved in purified water and then administered intraperitoneally at the dose of 10 mg/kg for 3 consecutive days per week (3 times per week, for 4 weeks). […] The collected blood was injected into a vacutainer tube containing a clot activator and then allowed to stand at room temperature for about 20 minutes so as to coagulate each blood sample. After centrifugation for 10 minutes, the resulting serums were subjected to blood-biochemical tests. The results obtained from the measurements were subject to group comparison, through parametric multiple comparisons or non-parametric multiple comparisons, with SPSS. When P<0.05, it was determined to be statistically significant.

[2] = system: primary mouse cortical neuron cells; assay: Autophagic vesicle formation (CYTO-ID Autophagy Detection Kit); assay type: cell-based; conditions: 10 μM; 24 hours; untreated control = 1
Experimental: Autophagy lysosomal pathway (ALP) activation by the compounds of the present invention was verified, through measuring the degree of autophagic vesicle formation in neuron cells with the CYTO-ID™ Autophagy Detection Kit (ENZ-51031-K200, Enzo Life Sciences, Inc.). Neuron cells (i.e., primary mouse cortical neuron cells) were isolated from mice using an enzymatic digest method. Specifically, primary mouse cortical neuron cells were isolated by incubating the cortice tissues derived from 16 day embryonic C57BL6 mice, at 37° C. for 30 minutes, with 20 U/ml papain (Worthington Biochemical Corporation, LK003176) and 0.005% DNase I (Worthington Biochemical Corporation, LK003170).
The primary mouse cortical neuron cells (8×10^4 cells) and a medium (a neural cell culture media containing 2 mM L-glutamine (Gibco, 25030-081), N2 supplement (Gibco, 17502-048), B27 supplement (Gibco, 17504-044), and 50 μg/ml penicillin-streptomycin (Gibco, 15140-122)) were added to each well of a 96-well plate and then incubated overnight at 37° C. in a CO2 incubator. The compound of Example 10 (5 μM), the compound of Example 29 (5 μM), and rapamycin (10 μM) were respectively treated to the cells, which were incubated at 37° C. in a CO2 incubator for 24 hours. After each well was washed with 1×Assay Buffer (Enzo Life Science, ENZ-51031-K200), 0.2 μl of Cyto-ID autophagy dye and 0.1 μl of Hoechst 33342 were treated to the cells, which were incubated at 37° C. in a CO2 incubator for 30 minutes. After each well was washed with 1×Assay Buffer (Enzo Life Science, ENZ-51031-K200), the fluorescence values of Cyto-ID (EX: 480 nm, EM: 530 nm) and Hoechst 33342 (EX: 340 nm, EM: 480 nm) were respectively measured with a fluorometer. Three wells were tested for each group. After normalization was carried out through dividing the Cyto-ID fluorescence value of each well by Hoechst 33342 fluorescence value, each relative intensity was calculated by setting that of the untreated control to 1.

[3] = system: N2a cells; assay: Autophagy flux by electron microscope imaging; assay type: cell-based, mouse; conditions: 10 μM; 24 hours
Experimental: N2a cells (ATCC, CCL-131, mouse neuroblastoma cell line) (3×10^4 cells) and a medium (DMEM (Dulbecco's modified Eagle's medium, Gibco, 11995-065) supplemented with 5% heat-inactivated fetal bovine serum, FBS; Gibco, 16000-044) and 50 μg/ml penicillin-streptomycin (Gibco, 15140-122) were added to each well of a 6-well plate and incubated overnight at 37° C. in a CO2 incubator. The compound of Example 29 (5 μM) and rapamycin (10 μM) were respectively treated and then incubated at 37° C. in a CO2 incubator for 24 hours. Three wells per each group were subject to electron microscope block formation and then pre-fixation, post-fixation, dehydration, substitution, and embedding were carried out according to a flat-embedding method. After ultra-thin sections having a thickness of 70 nm were prepared, heavy metal staining (uranyl acetate, lead citrate) was carried out on the each section, which was photographed through a mosaic imaging technique for imaging the entire cells. In addition, the results obtained by measuring the numbers of the total autophagies (autophagic vesicles), autophagosomes, and autolysosomes per cell according to the treatment groups are shown in Table 3 below. In Table 3 below, the control means the untreated control.

[4] = system: dimethylnitrosamine (DMN)-induced liver injury male SD rats; assay: Liver function-improving activities by oral administration in the liver injury model (2); assay type: in vivo, rat; conditions: for Inhibitory activity against liver fibrosis (in words) / Degenerative hepatocyte numbers / Inflammatory cell numbers / Collagen fiber occupied regions: 25 mg/kg oral 4 weeks; for Inhibitory activity against liver fibrosis (in words): histology; for Degenerative hepatocyte numbers / Inflammatory cell numbers: H&E staining of liver; for Degenerative hepatocyte numbers / Inflammatory cell numbers / Collagen fiber occupied regions: autopsy 24 hours after last administration; for Collagen fiber occupied regions: Masson's trichrome staining of liver
Experimental: Specifically, 7-week-old male SD rats (Orient Bio, Korea) were accommodated to the laboratory environment at room temperature for 7 days. General symptoms were observed and then only healthy animals were used for the experiment. The rats were divided into 5 groups (n=10 for each group), i.e., the normal control group, the group to which only DMN is administered, and the group to which both the compound of the present invention (the compound of Example 23, 26, or 29) and DMN are administered. DMN was dissolved in purified water and then administered intraperitoneally at the dose of 10 mg/kg for 3 consecutive days per week (3 times per week, for 4 weeks). Blood samples were collected after the completion of the fourth-week liver injury inducement and then the serum ALT (Alanine Transaminase) values and the serum AST (Aspartate Transaminase) values were measured so as to confirm the liver injury thereof. […] Blood samples were collected on Day 0 (1 day after the completion of the fourth-week liver injury inducement) and Day 7, 14, 21 and 28 after the administration of the test materials. The collected blood was injected into a vacutainer tube containing a clot activator and then allowed to stand at room temperature for about 20 minutes so as to coagulate each blood sample. After centrifugation for 10 minutes, the resulting serums were subjected to blood-biochemical tests. In addition, at 24 hours after the last administration, an autopsy for hepatectomy and fixation was performed to prepare the tissue specimens thereof. After preparing the slides with the tissue specimens, hematoxylin and eosin (H&E) staining was performed thereon for microscopic observation of damages to liver tissue and inflammatory cell infiltrations in liver tissues. In addition, Masson's trichrome staining was also performed thereon for microscopic observation of collagen fiber depositions in liver tissues. The results obtained from the measurements were subject to group comparison, through parametric multiple comparisons or non-parametric multiple comparisons, with SPSS. When P<0.05, it was determined to be statistically significant. […] Therefore, it can be confirmed that the compounds of the present invention have excellent treating activity against liver fibrosis. […] From the results of FIG. 4, the degrees of damage to liver tissue and inflammatory cell infiltration in liver tissues were measured. And also, from the results of FIG. 4, the degree of collagen fiber deposition in liver tissues was measured.

[5] = 0 week (Day 0, before administration)
[6] = 0 week (Day 0, after 4 weeks DMN, before administration)
[7] = 1 week, 25 mg/kg oral once a day after 4 weeks DMN
[8] = 2 weeks, 25 mg/kg oral once a day after 4 weeks DMN
[9] = 3 weeks, 25 mg/kg oral once a day after 4 weeks DMN
[10] = 4 weeks, 25 mg/kg oral once a day after 4 weeks DMN

Row | SMILES | ALT values (average value) [1, 5] [U/L] | AST values (average value) [1, 5] [U/L] | ALT values (average value) ([1]; 1 week) [U/L] | AST values (average value) ([1]; 1 week) [U/L] | ALT values (average value) ([1]; 2 weeks) [U/L] | AST values (average value) ([1]; 2 weeks) [U/L] | ALT values (average value) ([1]; 3 weeks) [U/L] | AST values (average value) ([1]; 3 weeks) [U/L] | ALT values (average value) [4, 6] [U/L] | AST values (average value) [4, 6] [U/L] | Inhibitory activity against liver fibrosis (in words) [4] | ALT values (average value) [4, 7] [U/L] | AST values (average value) [4, 7] [U/L] | ALT values (average value) [4, 8] [U/L] | AST values (average value) [4, 8] [U/L] | ALT values (average value) [4, 9] [U/L] | AST values (average value) [4, 9] [U/L] | ALT values (average value) [4, 10] [U/L] | AST values (average value) [4, 10] [U/L] | Degenerative hepatocyte numbers [4] [cells/1000 cells] | also measured
1 | Cc1nc(-c2ccc(OCC(C)C)c(C#N)c2)sc1C(=O)NCCN(C(C)C)C(C)C.Cl [Example 2, N-(2-(diisopropylamino)ethyl)-2-(3-cyano-4-isobutoxyphenyl)-4-methylthiazole-5-carboxamide hydrochloride] | 70.76 | 138.50 | 93.68 | 180.72 | 107.06 | 218.90 | 117.02 | 231.54 | – | – | – | – | – | – | – | – | – | – | – | – | –
2 | CO[C@H]1C[C@@H]2CC[C@@H](C)[C@@](O)(O2)C(=O)C(=O)N2CCCC[C@H]2C(=O)O[C@H]([C@H](C)C[C@@H]2CC[C@@H](O)[C@H](OC)C2)CC(=O)[C@H](C)/C=C(\C)[C@@H](O)[C@@H](OC)C(=O)[C@H](C)C[C@H](C)/C=C/C=C/C=C/1C [Rapamycin, rapamycin, reference compound] | – | – | – | – | – | – | – | – | – | – | – | – | – | – | – | – | – | – | – | – | Cyto-ID fluorescence value (relative intensity) [2]: 1.668; Numbers of the autophagy per cell: Autolysosome [3]: 7.6; Numbers of the autophagy per cell: Autophagic vesicles [3]: 13.3; Numbers of the autophagy per cell: Autophagosome [3]: 4.1
3 | CCN(CC)CCOc1ccc(-c2nc(C)c(C(=O)NCCN3CCOCC3)s2)cc1C#N.Cl.Cl [Example 26, N-(2-(4-morpholino)ethyl)-2-(4-(2-diethylamino)ethoxy-3-cyanophenyl)-4-methylthiazole-5-carboxamide hydrochloride] | – | – | – | – | – | – | – | – | 199.51 | 322.72 | excellent inhibitory activity against liver fibrosis | 134.97 | 153.48 | 70.09 | 145.71 | 62.81 | 138.76 | 59.12 | 114.45 | 259.14 ± 42.56 | AST value compared with the normal control group (in words) ([4]; 4 weeks after the administration, 25 mg/kg oral): equivalent to that of the normal control group; Inflammatory cell numbers [4]: 90.00 ± 20.67 cells/mm^2; Collagen fiber occupied regions [4]: 10.75 ± 2.17 %/mm^2
4 | CCN(CC)CCOc1ccc(-c2nc(C)c(C(=O)NCCN(C(C)C)C(C)C)s2)cc1C#N.Cl.Cl [Example 23, N-(2-(diisopropylamino)ethyl)-2-(4-(2-diethylamino)ethoxy-3-cyanophenyl)-4-methylthiazole-5-carboxamide hydrochloride] | 67.64 | 145.10 | 94.40 | 208.56 | 97.64 | 221.58 | 101.04 | 203.44 | 198.30 | 395.34 | excellent inhibitory activity against liver fibrosis | 104.22 | 169.11 | 65.66 | 140.57 | 60.95 | 128.30 | 52.93 | 125.15 | 319.14 ± 44.66 | Inflammatory cell numbers [4]: 101.43 ± 16.53 cells/mm^2; Collagen fiber occupied regions [4]: 12.44 ± 2.03 %/mm^2
